For 14 molecules, TGI and GI50 results are on record in PubChem BioAssay (NCI).

Values joined by “and” are separate entries in the source; they are usually repeats but may differ in a detail not shown here. Equal values may be shown once.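 Briefly, cells in 96-well plates were exposed to five compound concentrations for 48 h, and endpoints were estimated by linear interpolation. The concentration for 50% growth inhibition is given as GI50. At the TGI there is no net growth.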

Some test systems named below: UACC-257 melanoma; HS 578T breast; NCI/ADR-RES ovarian; RXF 393 renal; SK-MEL-5 melanoma; K-562 leukemia; OVCAR-4 ovarian; SK-MEL-28 melanoma; TK-10 renal; LOX IMVI melanoma.
What all share (assay): NCI tumour cell line growth inhibition, 48 h

In the case of `c1ccc2c3c(ccc2c1)CSCc1ccc2ccccc2c1-3`, the TGI with UACC-257 melanoma, in the experiment on HS 578T breast, in the experiment with NCI/ADR-RES ovarian, in the experiment with RXF 393 renal, with SK-MEL-5 melanoma and in the experiment with K-562 leukemia was above 100 µM in each case. The TGI with OVCAR-4 ovarian, in the experiment with SK-MEL-28 melanoma, in the experiment with TK-10 renal and in the experiment on LOX IMVI melanoma was above 100 µM throughout.

On to `O=C1CCSSCCC(=O)Nc2ccccc2N1`, for which the TGI in the experiment with UACC-257 melanoma, in the experiment with HS 578T breast, in the experiment on NCI/ADR-RES ovarian, with RXF 393 renal, in the experiment with SK-MEL-5 melanoma and with K-562 leukemia was above 100 µM throughout. The TGI in the experiment on OVCAR-4 ovarian, in the experiment on SK-MEL-28 melanoma, in the experiment with TK-10 renal and in the experiment on LOX IMVI melanoma was above 100 µM throughout.

Take `N#Cc1c(N)c(-c2ccc(Cl)cc2)c(F)c2ccccc12`: the TGI with UACC-257 melanoma was above 100 µM; in the experiment on HS 578T breast, above 100 µM; in the experiment with NCI/ADR-RES ovarian it was above 100 µM; in the experiment with RXF 393 renal, 58.3 µM; in the experiment on SK-MEL-5 melanoma it was above 100 µM; in the experiment on K-562 leukemia it was above 100 µM. The TGI in the experiment on OVCAR-4 ovarian, in the experiment with SK-MEL-28 melanoma, in the experiment with TK-10 renal and with LOX IMVI melanoma was above 100 µM each time.

In the case of `O=C(Cn1c2ccc(Br)cc2c2nc3ccccc3nc21)NC1CCCCC1`, the TGI in the experiment with UACC-257 melanoma, in the experiment with HS 578T breast, in the experiment with NCI/ADR-RES ovarian, with RXF 393 renal, with SK-MEL-5 melanoma and in the experiment with K-562 leukemia was above 100 µM in each case. The TGI in the experiment with OVCAR-4 ovarian, in the experiment on SK-MEL-28 melanoma, with TK-10 renal and with LOX IMVI melanoma was above 100 µM throughout.

Consider `CC(=O)N(C(C)=O)n1c(Cc2ccc(Cl)cc2)nn(C(C)=O)c1=O`, for which the TGI in the experiment with HS 578T breast, in the experiment with NCI/ADR-RES ovarian, in the experiment on RXF 393 renal, in the experiment with SK-MEL-5 melanoma, with K-562 leukemia and in the experiment with OVCAR-4 ovarian was above 100 µM throughout. Besides, the TGI in the experiment on SK-MEL-28 melanoma, with TK-10 renal and in the experiment with LOX IMVI melanoma was above 100 µM each time.

With `C#CC(C)(C)Oc1cc(OC)c2c(=O)c3ccccc3n(C)c2c1`, the TGI in the experiment on UACC-257 melanoma was determined as 26.4 µM; in the experiment with HS 578T breast, 60.6 µM; in the experiment with NCI/ADR-RES ovarian, 83.4 µM; with RXF 393 renal it was 84.8 µM; in the experiment on SK-MEL-5 melanoma, 23.4 µM; with K-562 leukemia, 55.5 µM. Also, the TGI in the experiment with OVCAR-4 ovarian is 41.8 µM; in the experiment on SK-MEL-28 melanoma, 42.6 µM; in the experiment with TK-10 renal, above 100 µM.

Consider `COc1cc2c3c(n(CCCNCCO)c(=O)c2cc1OC)-c1cc2c(cc1C3=O)OCO2`, for which the TGI with HS 578T breast is 27.3 µM; in the experiment on NCI/ADR-RES ovarian, above 100 µM; in the experiment on RXF 393 renal it was 1.26 µM and 5.75 µM; with SK-MEL-5 melanoma, 1.51 µM and 1.56 µM; in the experiment with K-562 leukemia it was above 100 µM; with TK-10 renal it was 28.5 µM. For the same molecule, the TGI in the experiment on LOX IMVI melanoma was 0.169 µM. In addition, the GI50 was 0.295 µM in the experiment with NCI/ADR-RES ovarian; 0.139 µM and 0.268 µM in the experiment on RXF 393 renal; 2.16 µM and 0.511 µM in the experiment with K-562 leukemia.

On to `O=C1c2cc([N+](=O)[O-])ccc2NC2C(O)c3ccccc3N12` (stereo not drawn), for which the TGI is 55.3 µM in the experiment with UACC-257 melanoma; 74.3 µM in the experiment with HS 578T breast; 63.1 µM with NCI/ADR-RES ovarian; 34.5 µM with RXF 393 renal; above 100 µM in the experiment on SK-MEL-5 melanoma; 87.8 µM in the experiment on K-562 leukemia. Moreover, the TGI is 55.8 µM with OVCAR-4 ovarian, 58.1 µM with TK-10 renal and above 100 µM in the experiment with LOX IMVI melanoma.

For `Cc1ccc(S(=O)(=O)Nn2c(-c3ccccc3)c(C#N)c(-c3ccc([N+](=O)[O-])cc3)c(C#N)c2=O)cc1`, the TGI in the experiment on UACC-257 melanoma, in the experiment on HS 578T breast, in the experiment with NCI/ADR-RES ovarian, with RXF 393 renal, with SK-MEL-5 melanoma and in the experiment with OVCAR-4 ovarian was above 100 µM in each case. Further, the TGI in the experiment with SK-MEL-28 melanoma, with TK-10 renal and with LOX IMVI melanoma was above 100 µM throughout.

Take `CCCCCCCCCCCCC(=O)NCC(=O)NC(Cc1ccccc1)C(=O)Oc1ccc([N+](=O)[O-])cc1` (stereo not drawn): the TGI in the experiment on UACC-257 melanoma, with HS 578T breast, with NCI/ADR-RES ovarian, in the experiment on RXF 393 renal, with SK-MEL-5 melanoma and in the experiment on TK-10 renal was above 100 µM in each case. The same molecule yielded a TGI with LOX IMVI melanoma above 100 µM.

In the case of `C=C(CCOC)CCC1CCCCC(=C)C1=O` (stereo not drawn), the TGI in the experiment on HS 578T breast, with NCI/ADR-RES ovarian, with RXF 393 renal, in the experiment with SK-MEL-5 melanoma, with K-562 leukemia and in the experiment with OVCAR-4 ovarian was above 100 µM throughout. Also, the TGI in the experiment with SK-MEL-28 melanoma and with LOX IMVI melanoma was above 100 µM each time.

As to `Cc1cs/c(=N\C(P(=O)(O)O)P(=O)(O)O)n1C`, the TGI with UACC-257 melanoma is above 100 µM; in the experiment with HS 578T breast, 47.8 µM; with NCI/ADR-RES ovarian it was above 100 µM; in the experiment on RXF 393 renal, above 100 µM; with SK-MEL-5 melanoma, above 100 µM; in the experiment on K-562 leukemia, above 100 µM. The TGI with SK-MEL-28 melanoma, in the experiment with TK-10 renal and with LOX IMVI melanoma was above 100 µM each time.

With `N#Cc1c(=O)c2cccnc2n2c1[nH]c1ccccc12`, the TGI in the experiment on UACC-257 melanoma is above 100 µM; with HS 578T breast, 69.9 µM; with NCI/ADR-RES ovarian, above 100 µM; with RXF 393 renal, above 100 µM; with K-562 leukemia it was above 100 µM; in the experiment on OVCAR-4 ovarian, above 100 µM. For the same molecule, the TGI with SK-MEL-28 melanoma, in the experiment with TK-10 renal and in the experiment on LOX IMVI melanoma was above 100 µM each time.

Consider `COc1ccc(CNc2nc(NCc3ccc(OC)cc3)nc(NC3CCCCC3)n2)cc1`, for which the TGI is above 100 µM in the experiment with UACC-257 melanoma; 4.85 µM in the experiment with HS 578T breast; 5.36 µM with NCI/ADR-RES ovarian; above 100 µM in the experiment with SK-MEL-5 melanoma; above 100 µM in the experiment with K-562 leukemia; above 100 µM in the experiment on OVCAR-4 ovarian. The TGI in the experiment with SK-MEL-28 melanoma was above 100 µM; in the experiment with TK-10 renal, 4.11 µM; with LOX IMVI melanoma it was 20.2 µM.
